Source: article PMC5564600 (Oncotarget, 2017)

Experiments:
Test in all cases: biochemical
Assay type in all cases: binding
panel of 442 kinases [1] = biological target: T1, panel of 442 kinases (Homo sapiens, UniProt Q86Y07); conditions: kinase VRK2; for remaining activity at 1 µM: read-out: VRK2 (% of control at 1 µM)
T1 construct: purchased Ambit Biosciences (scanMAXX KINOMEscan)

panel of 442 kinases [2] = biological target: T2, panel of 442 kinases (Homo sapiens, UniProt Q9HC98); conditions: kinase NEK6; for remaining activity at 1 µM: read-out: % of control at 1 µM
T2 construct: purchased Ambit Biosciences (scanMAXX KINOMEscan)

panel of 442 kinases [3] = biological target: T3, panel of 442 kinases (Homo sapiens, UniProt Q12852); conditions: DLK; for remaining activity at 1 µM: read-out: % of control at 1 µM
T3 construct: purchased Ambit Biosciences (scanMAXX KINOMEscan)
T3 sequence (Q12852 1-859): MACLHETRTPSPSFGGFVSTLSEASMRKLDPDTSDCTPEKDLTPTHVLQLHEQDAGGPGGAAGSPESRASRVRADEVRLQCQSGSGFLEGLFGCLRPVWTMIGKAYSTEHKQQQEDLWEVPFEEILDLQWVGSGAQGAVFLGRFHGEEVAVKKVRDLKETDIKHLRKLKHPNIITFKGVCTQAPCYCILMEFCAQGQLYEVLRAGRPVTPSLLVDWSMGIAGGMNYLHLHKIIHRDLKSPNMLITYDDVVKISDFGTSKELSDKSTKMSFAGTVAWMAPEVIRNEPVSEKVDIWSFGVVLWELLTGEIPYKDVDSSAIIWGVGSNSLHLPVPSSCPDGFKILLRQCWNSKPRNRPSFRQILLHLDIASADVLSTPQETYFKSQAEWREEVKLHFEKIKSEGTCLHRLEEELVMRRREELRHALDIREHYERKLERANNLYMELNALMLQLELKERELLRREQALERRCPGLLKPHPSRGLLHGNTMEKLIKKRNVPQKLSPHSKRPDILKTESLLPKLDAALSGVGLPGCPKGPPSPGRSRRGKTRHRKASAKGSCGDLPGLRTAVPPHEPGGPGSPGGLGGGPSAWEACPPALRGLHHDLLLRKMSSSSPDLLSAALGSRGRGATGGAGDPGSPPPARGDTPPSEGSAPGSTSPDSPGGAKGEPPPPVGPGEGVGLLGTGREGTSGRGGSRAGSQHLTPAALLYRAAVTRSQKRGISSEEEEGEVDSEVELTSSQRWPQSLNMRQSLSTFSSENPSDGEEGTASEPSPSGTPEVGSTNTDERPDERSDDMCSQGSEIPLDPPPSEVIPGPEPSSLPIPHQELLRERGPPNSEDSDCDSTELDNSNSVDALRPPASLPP

panel of 442 kinases [4] = biological target: T4, panel of 442 kinases (Homo sapiens, UniProt O15146); conditions: kinase MUSK; for remaining activity at 1 µM: read-out: % of control at 1 µM
T4 construct: purchased Ambit Biosciences (scanMAXX KINOMEscan)
T4 sequence (O15146 24-869): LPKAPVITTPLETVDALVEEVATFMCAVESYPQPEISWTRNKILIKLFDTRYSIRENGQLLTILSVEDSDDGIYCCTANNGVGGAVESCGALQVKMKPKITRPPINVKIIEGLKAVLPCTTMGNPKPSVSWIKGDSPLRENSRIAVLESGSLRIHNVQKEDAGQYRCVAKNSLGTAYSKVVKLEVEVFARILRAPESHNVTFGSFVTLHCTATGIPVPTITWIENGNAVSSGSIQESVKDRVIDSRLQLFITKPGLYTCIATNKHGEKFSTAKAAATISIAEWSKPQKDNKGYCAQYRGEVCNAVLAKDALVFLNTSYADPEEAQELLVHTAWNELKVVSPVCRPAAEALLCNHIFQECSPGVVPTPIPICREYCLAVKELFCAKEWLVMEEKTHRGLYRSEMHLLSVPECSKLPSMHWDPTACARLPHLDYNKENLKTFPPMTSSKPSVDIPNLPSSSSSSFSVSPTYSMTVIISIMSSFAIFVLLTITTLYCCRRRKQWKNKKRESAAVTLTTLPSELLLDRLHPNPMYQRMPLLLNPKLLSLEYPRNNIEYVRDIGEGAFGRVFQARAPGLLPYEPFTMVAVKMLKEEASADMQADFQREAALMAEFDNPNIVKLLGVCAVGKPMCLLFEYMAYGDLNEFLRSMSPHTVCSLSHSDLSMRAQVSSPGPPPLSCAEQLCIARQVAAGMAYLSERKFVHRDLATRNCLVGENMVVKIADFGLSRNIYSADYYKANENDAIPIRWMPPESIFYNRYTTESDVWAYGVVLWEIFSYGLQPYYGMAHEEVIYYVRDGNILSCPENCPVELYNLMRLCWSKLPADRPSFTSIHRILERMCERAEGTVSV

panel of 442 kinases [5] = biological target: T5, panel of 442 kinases (Homo sapiens, UniProt Q9UPE1); conditions: kinase SRPK3; for remaining activity at 1 µM: read-out: SRPK3 (% of control at 1 µM)
T5 construct: purchased Ambit Biosciences (scanMAXX KINOMEscan)

panel of 442 kinases [6] = biological target: T6, panel of 442 kinases (Homo sapiens, UniProt O94921); conditions: kinase PFTK1; for remaining activity at 1 µM: read-out: % of control at 1 µM
T6 construct: purchased Ambit Biosciences (scanMAXX KINOMEscan)

panel of 442 kinases [7] = biological target: T7, panel of 442 kinases (Homo sapiens, UniProt P27037); conditions: ACVR2A; for remaining activity at 1 µM: read-out: % of control at 1 µM
T7 construct: purchased Ambit Biosciences (scanMAXX KINOMEscan)

panel of 442 kinases [8] = biological target: T8, panel of 442 kinases (Homo sapiens, UniProt Q13131); conditions: AMPK-alpha1; for remaining activity at 1 µM: read-out: % of control at 1 µM
T8 construct: purchased Ambit Biosciences (scanMAXX KINOMEscan)

panel of 442 kinases [9] = biological target: T9, panel of 442 kinases (Homo sapiens, UniProt P21127); conditions: CDC2L1; for remaining activity at 1 µM: read-out: % of control at 1 µM
T9 construct: purchased Ambit Biosciences (scanMAXX KINOMEscan)

panel of 442 kinases [10] = biological target: T10, panel of 442 kinases (Homo sapiens, UniProt Q13233); conditions: kinase MAP3K1; for remaining activity at 1 µM: read-out: % of control at 1 µM
T10 construct: purchased Ambit Biosciences (scanMAXX KINOMEscan)

panel of 442 kinases [11] = biological target: T11, panel of 442 kinases (Homo sapiens, UniProt Q9H0K1); conditions: kinase SIK2; for remaining activity at 1 µM: read-out: SIK2 (% of control at 1 µM)
T11 construct: purchased Ambit Biosciences (scanMAXX KINOMEscan)

[12] = 10 µM, read-out: % of control at 10 µM

T2 sequence (Q9HC98 whole entry): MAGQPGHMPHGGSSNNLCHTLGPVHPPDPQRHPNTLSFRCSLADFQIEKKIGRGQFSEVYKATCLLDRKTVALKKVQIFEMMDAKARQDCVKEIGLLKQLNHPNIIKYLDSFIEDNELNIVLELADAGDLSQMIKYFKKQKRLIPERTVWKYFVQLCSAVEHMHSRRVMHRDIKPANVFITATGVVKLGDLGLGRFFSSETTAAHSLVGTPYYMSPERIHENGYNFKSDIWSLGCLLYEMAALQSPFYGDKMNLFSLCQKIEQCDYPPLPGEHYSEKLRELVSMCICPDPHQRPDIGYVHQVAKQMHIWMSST
T11 sequence (Q9H0K1 whole entry): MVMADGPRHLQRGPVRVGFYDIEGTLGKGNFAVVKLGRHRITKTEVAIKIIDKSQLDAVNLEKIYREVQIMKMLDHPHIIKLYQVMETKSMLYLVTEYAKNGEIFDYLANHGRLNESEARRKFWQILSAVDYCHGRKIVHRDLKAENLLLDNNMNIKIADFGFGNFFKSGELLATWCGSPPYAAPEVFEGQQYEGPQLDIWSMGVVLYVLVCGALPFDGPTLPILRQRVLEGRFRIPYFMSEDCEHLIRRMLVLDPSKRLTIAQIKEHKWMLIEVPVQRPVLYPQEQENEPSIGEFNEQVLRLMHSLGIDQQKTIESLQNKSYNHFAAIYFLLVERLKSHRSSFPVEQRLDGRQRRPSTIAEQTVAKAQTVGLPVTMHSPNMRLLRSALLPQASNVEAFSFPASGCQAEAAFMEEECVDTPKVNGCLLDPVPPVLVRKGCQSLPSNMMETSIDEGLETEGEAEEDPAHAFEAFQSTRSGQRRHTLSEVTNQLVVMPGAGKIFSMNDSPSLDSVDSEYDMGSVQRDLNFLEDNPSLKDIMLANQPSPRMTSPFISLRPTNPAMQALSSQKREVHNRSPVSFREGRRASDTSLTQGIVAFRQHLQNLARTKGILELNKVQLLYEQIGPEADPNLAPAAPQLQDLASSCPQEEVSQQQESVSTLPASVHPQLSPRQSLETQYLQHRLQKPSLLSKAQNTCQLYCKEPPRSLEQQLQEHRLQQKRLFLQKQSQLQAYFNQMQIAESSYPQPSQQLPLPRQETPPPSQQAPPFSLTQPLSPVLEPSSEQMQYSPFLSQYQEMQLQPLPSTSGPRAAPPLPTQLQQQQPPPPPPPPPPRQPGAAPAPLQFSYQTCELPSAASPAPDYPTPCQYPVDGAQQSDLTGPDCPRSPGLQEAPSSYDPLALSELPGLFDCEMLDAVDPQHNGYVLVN
T5 sequence (Q9UPE1 whole entry): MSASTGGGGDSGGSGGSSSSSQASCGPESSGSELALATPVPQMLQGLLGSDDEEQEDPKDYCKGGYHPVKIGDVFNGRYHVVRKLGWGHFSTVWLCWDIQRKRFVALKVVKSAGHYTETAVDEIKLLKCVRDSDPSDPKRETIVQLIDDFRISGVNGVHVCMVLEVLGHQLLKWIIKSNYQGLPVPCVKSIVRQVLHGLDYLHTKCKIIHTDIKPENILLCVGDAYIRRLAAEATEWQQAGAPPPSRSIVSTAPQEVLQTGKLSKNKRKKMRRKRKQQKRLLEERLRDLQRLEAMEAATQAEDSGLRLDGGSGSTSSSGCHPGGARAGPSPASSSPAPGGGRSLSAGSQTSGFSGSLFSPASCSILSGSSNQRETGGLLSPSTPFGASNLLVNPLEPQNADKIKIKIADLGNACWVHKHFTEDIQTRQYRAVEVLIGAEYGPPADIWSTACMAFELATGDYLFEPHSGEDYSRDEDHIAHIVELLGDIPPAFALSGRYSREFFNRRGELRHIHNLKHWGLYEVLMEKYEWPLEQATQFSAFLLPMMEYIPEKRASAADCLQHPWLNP
T6 sequence (O94921 whole entry): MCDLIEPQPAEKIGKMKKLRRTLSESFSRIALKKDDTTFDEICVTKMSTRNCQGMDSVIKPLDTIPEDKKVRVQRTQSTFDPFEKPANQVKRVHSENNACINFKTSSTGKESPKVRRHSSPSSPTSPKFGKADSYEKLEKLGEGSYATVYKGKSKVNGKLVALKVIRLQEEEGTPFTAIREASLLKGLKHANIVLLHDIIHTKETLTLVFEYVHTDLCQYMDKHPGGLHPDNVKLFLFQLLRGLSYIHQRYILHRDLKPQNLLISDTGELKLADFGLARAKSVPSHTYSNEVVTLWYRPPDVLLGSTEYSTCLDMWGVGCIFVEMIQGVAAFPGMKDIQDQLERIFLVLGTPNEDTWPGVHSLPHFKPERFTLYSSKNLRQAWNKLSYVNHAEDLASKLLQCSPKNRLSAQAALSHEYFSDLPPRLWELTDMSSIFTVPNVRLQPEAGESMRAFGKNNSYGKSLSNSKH
T8 sequence (Q13131 whole entry): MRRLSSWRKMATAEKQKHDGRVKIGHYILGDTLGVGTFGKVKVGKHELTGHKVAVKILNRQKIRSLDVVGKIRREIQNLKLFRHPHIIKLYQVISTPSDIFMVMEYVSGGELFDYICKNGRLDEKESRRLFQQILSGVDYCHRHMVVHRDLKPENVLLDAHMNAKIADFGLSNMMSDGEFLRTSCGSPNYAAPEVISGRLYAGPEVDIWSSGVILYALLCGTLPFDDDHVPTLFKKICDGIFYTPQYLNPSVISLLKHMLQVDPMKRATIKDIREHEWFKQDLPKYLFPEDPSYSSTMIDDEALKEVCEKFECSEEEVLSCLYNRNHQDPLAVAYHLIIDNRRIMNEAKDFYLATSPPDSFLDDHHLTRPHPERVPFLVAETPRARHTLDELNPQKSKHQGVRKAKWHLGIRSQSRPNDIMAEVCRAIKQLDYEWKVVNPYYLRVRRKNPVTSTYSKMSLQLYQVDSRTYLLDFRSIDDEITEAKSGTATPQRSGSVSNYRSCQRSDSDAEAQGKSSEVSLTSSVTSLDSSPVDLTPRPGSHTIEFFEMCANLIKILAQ
T1 sequence (Q86Y07 whole entry): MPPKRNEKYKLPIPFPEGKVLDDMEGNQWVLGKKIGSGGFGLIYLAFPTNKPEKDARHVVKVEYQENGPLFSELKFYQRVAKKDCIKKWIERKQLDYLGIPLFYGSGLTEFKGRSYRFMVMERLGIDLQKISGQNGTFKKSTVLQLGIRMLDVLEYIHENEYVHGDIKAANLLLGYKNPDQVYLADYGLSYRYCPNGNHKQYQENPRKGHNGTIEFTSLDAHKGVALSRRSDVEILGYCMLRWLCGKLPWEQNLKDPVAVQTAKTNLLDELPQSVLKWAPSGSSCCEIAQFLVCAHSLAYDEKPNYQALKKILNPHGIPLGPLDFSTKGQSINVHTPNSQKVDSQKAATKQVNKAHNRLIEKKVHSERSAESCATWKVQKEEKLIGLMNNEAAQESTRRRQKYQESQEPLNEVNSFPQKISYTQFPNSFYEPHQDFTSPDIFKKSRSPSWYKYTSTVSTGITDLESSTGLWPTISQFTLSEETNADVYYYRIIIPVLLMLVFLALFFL
T10 sequence (Q13233 whole entry): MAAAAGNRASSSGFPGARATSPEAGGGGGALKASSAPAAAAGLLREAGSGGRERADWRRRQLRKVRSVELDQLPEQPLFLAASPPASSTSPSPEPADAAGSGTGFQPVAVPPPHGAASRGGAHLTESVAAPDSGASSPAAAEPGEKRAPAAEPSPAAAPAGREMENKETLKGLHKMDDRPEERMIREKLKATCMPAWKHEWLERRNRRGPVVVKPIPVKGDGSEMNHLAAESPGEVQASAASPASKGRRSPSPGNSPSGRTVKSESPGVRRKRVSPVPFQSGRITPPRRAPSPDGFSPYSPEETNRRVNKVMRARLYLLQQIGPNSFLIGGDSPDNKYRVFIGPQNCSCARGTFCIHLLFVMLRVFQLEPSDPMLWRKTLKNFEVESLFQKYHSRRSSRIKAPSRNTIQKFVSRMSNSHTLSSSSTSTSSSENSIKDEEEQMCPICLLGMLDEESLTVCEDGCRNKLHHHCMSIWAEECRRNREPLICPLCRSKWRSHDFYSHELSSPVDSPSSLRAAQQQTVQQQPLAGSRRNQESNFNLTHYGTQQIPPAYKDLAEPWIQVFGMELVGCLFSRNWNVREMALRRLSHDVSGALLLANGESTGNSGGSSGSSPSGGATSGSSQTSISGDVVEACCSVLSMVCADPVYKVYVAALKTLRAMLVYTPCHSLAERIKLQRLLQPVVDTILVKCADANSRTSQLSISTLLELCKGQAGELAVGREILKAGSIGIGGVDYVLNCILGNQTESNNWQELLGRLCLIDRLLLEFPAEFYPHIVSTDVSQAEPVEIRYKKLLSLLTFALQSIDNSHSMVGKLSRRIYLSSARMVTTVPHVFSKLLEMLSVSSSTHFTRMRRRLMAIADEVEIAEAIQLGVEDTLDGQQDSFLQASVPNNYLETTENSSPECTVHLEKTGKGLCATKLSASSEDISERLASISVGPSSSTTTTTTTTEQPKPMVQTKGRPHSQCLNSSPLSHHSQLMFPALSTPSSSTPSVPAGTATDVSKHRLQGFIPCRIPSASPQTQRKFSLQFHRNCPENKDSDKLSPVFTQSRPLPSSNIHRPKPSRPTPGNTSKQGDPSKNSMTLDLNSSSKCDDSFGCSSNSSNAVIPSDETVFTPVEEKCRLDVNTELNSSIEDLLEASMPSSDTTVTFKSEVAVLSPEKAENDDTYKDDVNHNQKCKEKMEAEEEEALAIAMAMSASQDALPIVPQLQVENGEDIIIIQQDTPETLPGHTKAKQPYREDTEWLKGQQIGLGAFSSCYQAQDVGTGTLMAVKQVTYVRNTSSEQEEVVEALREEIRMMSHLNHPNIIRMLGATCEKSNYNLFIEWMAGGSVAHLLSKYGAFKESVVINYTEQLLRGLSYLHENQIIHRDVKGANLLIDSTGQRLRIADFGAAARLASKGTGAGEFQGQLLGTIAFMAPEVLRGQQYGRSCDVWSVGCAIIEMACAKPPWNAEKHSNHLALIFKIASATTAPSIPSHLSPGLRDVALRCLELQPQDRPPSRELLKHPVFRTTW

Structure (SMILES) | remaining activity at 1 µM (panel of 442 kinases [1]) [%] | remaining activity at 1 µM (panel of 442 kinases [2]) [%] | remaining activity at 1 µM (panel of 442 kinases [3]) [%] | remaining activity at 1 µM (panel of 442 kinases [4]) [%] | remaining activity at 1 µM (panel of 442 kinases [5]) [%] | remaining activity at 1 µM (panel of 442 kinases [6]) [%] | remaining activity at 1 µM (panel of 442 kinases [7]) [%] | remaining activity at 1 µM (panel of 442 kinases [8]) [%] | remaining activity at 1 µM (panel of 442 kinases [9]) [%] | remaining activity at 1 µM (panel of 442 kinases [10]) [%] | remaining activity at 1 µM (panel of 442 kinases [11]) [%] | further results
Nc1cc(C(F)(F)F)c(-c2cc(N3CCOCC3)nc(N3CCOCC3)n2)cn1 [Buparlisib] | 83 | 84 | 94 | 86 | 100 | 100 | 100 | 96 | 85 | 100 | 100 | remaining activity at 10 µM (panel of 442 kinases [1]; 10 µM, read-out: VRK2 (% of control at 10 µM)): 100%; remaining activity at 10 µM (panel of 442 kinases [2]; [12]): 100%; remaining activity at 10 µM (panel of 442 kinases [3]; [12]): 100%; remaining activity at 10 µM (panel of 442 kinases [4]; [12]): 55%; remaining activity at 10 µM (panel of 442 kinases [5]; 10 µM, read-out: SRPK3 (% of control at 10 µM)): 100%; remaining activity at 10 µM (panel of 442 kinases [6]; [12]): 97%; remaining activity at 10 µM (panel of 442 kinases [7]; [12]): 100%; remaining activity at 10 µM (panel of 442 kinases [8]; [12]): 100%; remaining activity at 10 µM (panel of 442 kinases [9]; [12]): 92%; remaining activity at 10 µM (panel of 442 kinases [10]; [12]): 100%; remaining activity at 10 µM (panel of 442 kinases [11]; 10 µM, read-out: SIK2 (% of control at 10 µM)): 93%
Cn1c(=O)n(-c2ccc(C(C)(C)C#N)cc2)c2c3cc(-c4cnc5ccccc5c4)ccc3ncc21 [Dactolisib, 2-methyl-2-[4-(3-methyl-2-oxo-8-quinolin-3-yl-2,3-dihydroimidazo[4,5-c]quinolin-1-yl)-phenyl] propionitrile] | 83 | 100 | 100 | 100 | 91 | 98 | 89 | 97 | 100 | 100 | 82 | –
COc1ncc(-c2ccc3nccc(-c4ccnnc4)c3c2)cc1NS(=O)(=O)c1ccc(F)cc1F [Omipalisib] | 100 | 100 | 63 | 100 | 100 | 97 | 100 | 100 | 96 | 100 | 100 | –
FC(F)c1nc2ccccc2n1-c1nc(N2CCOCC2)nc(N2CCOCC2)n1 [ZSTK474, 2-(difluoromethyl)-1-[4,6-di(4-morpholinyl)-1,3,5-triazin-2-yl]-1H-benzimidazole] | 100 | 100 | 100 | 100 | 100 | 100 | 100 | 100 | 88 | 100 | 78 | –
